Data as given in US11684614B2, “Formulations of hydroxypyridonate actinide/lanthanide decorporation agents” (priority 2017, dated 2023).
Where two headings read alike, the source gives them in different places.

What was measured:
[1] = type: in vivo, Swiss-Webster mice
Description: Formulated material was used in the single dose in vivo ADME characterization studies in Sprague Dawley rats and Swiss-Webster mice with 14C-labeled 3,4,3-L1(1,2-HOPO).
Pharmacokinetic parameters and disposition/biodistribution of 3,4,3-L1(1,2-HOPO) were characterized in vivo (with the aid of two 14C labels on the spermine backbone of the parent product) in two non-GLP studies using Swiss-Webster mice and Sprague Dawley rats. The study designs for these two studies are shown in TABLE 5.1 and TABLE 5.2, respectively. Groups of six mice (3 male, 3 female) were given a single dose of [14C]-3,4,3-L1(1,2-HOPO) via iv, ip, or po routes, respectively. An additional group of six mice (3 male, 3 female) were administered the 14C-labeled API with permeability enhancer (10% sodium oleate) by oral gavage (po). Similarly, groups of six rats (3 male, 3 female) were administered a single iv dose of the 14C-labeled API or a single po dose of the 14C-labeled API with 10% sodium oleate. In each of these studies, samples were collected at scheduled time points up to 24 hr post-dose and analyzed for 14C content using liquid scintillation counting. Blood, liver, kidney, feces and urine were collected and analyzed from the mice. Blood, brain, liver, kidney, lungs, spleen, skeletal muscle tissues, gastrointestinal (GI) tract samples, carcasses, feces, and urine were collected and analyzed from the rats.

[2] = Double-Sink PAMPA permeability assay with permeation enhancers (flux ratio); type: in vitro ADME; settings: compared with reference compound Ranitidine
Description: The objective of the analytical study described in Part C of this report was to assess the feasibility of enhancing the permeability of the active pharmaceutical ingredient 3,4,3-L1(1,2-HOPO) using oral permeation enhancers. Evaluation was performed using an in vitro pK assay based on the Double-Sink™ PAMPA technology developed by pION, Inc.
The permeability enhancement study was performed in two stages. In the first stage (TABLE 10.1), 15 formulations were prepared and screened. The second stage (TABLE 10.2) was performed to refine the concentrations of the permeability enhancers that seemed to display permeability enhancement in the first screening. The screening conditions for both stages are listed below. The sample solutions were stored throughout the study in 20 mL clear scintillation glass vials with polypropylene cap and pulp foil liner, wrapped in aluminum foil.
• Test Solutions: Vehicles containing the permeation enhancers were prepared by weighing the adequate quantity of enhancer and dissolving it into 100 mL of purified water to reach the designated concentration. Test solutions were then prepared by weighing 10 mg of 3,4,3-L1(1,2-HOPO), dissolving it into 10 mL of each of the vehicles to reach a concentration of 1 mg/mL (purified water was used for the control solution). The final pH and clarity of each solution were recorded. […]

[3] = target: CYP2C9 (Homo sapiens, UniProt P11712); assay: CYP inhibition; type: in vitro ADME
Sequence of CYP2C9 (P11712 whole entry): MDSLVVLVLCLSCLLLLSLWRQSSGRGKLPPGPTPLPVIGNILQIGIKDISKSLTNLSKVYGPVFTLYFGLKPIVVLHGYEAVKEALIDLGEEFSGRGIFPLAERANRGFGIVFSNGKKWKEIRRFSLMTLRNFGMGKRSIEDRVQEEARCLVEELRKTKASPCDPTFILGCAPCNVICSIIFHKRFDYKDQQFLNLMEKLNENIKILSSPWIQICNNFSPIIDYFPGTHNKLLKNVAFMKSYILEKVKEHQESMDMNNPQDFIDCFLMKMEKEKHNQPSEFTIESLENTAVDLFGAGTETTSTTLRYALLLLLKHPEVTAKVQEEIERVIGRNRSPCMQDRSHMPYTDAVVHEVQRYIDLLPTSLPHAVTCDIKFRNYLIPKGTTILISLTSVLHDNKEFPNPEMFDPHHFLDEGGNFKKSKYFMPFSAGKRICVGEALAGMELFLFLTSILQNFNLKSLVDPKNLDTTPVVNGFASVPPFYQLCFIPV

[4] = Plasma protein binding, dog; type: in vitro ADME; settings: tested at 10 μg/ml
Description: Plasma protein binding differed across species; it was greatest in dog (95%), intermediate in human (29%), and lowest in rat (5%) when tested at 10 μg/ml.

[5] = target: CYP2D6 (Homo sapiens, UniProt P10635); assay: CYP inhibition; type: in vitro ADME
Sequence of CYP2D6 (P10635 whole entry): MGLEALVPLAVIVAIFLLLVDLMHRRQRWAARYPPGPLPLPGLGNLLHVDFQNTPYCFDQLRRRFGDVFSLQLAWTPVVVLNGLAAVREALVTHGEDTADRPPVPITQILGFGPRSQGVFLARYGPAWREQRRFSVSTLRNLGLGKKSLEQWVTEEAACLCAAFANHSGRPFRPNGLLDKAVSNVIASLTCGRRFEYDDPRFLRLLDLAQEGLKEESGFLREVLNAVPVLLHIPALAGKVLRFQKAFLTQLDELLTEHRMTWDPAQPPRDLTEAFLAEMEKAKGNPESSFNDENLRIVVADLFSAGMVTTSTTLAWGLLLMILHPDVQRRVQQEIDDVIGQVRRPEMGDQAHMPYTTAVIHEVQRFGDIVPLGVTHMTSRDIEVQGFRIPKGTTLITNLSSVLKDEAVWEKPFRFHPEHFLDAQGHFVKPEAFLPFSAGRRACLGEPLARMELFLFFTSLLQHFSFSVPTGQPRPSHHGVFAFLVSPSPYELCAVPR

[6] = po, female mice, formulated with sodium oleate
[7] = po, female mice, without sodium oleate
[8] = po, male mice, formulated with sodium oleate
[9] = po, male mice, without sodium oleate

## O=C(NCCCN(CCCCN(CCCNC(=O)c1cccc(=O)n1O)C(=O)c1cccc(=O)n1O)C(=O)c1cccc(=O)n1O)c1cccc(=O)n1O [3,4,3-L1(1,2-HOPO)]
[1]; female mice
  oral bioavailability (F) of radioactive compound: 2.6%
[1]; male mice
  oral bioavailability (F) of radioactive compound: 1.2%
[1]; mice
  enhancement of exposure parameters with sodium oleate: 2- to 3 fold
  oral bioavailability improvement with sodium oleate: about 2 fold
[1]; oral dose, rodents (mice)
  Tmax: ~42 min
[1]; [6]
  AUC calculated over 2 hr posttreatment: 35.1±18.9 min Pg-eq/ml
  Cmax: 1.4 Pg-eq/ml
[1]; [7]
  AUC calculated over 2 hr posttreatment: 23.0±15.4 min Pg-eq/ml
  Cmax: 0.55 Pg-eq/ml
[1]; [8]
  AUC calculated over 2 hr posttreatment: 17.4±6.7 min Pg-eq/ml
  Cmax: 0.93 Pg-eq/ml
[1]; [9]
  AUC calculated over 2 hr posttreatment: 8.3±6.2 min Pg-eq/ml
  Cmax: 0.32 Pg-eq/ml
[1]; po, mice
  Cmax improvement with sodium oleate: approximately 3 fold
[2]
  permeability (PAMPA): very low permeability
[3]
  inhibition of CYP2C9 activity: did not inhibit
[4]
  Plasma protein binding: 95%
[5]
  inhibition of CYP2D6 activity: did not inhibit
